Measured values reported in the NIST ThermoML archive (doi:10.1016/j.jct.2008.04.016).
Numbers after ± are expanded uncertainties.

Legend:
[1] = refractive index (Na D-line) (dimensionless); conditions: 101.33 kPa, Liquid
[2] = for viscosity / mass density: 101.33 kPa, Liquid

Compound	refractive index ([1]; 302.95 K)	refractive index ([1]; 307.75 K)	refractive index ([1]; 313.15 K)	refractive index ([1]; 318.05 K)	refractive index ([1]; 322.95 K)	refractive index ([1]; 328.05 K)	refractive index ([1]; 332.95 K)	viscosity ([2]; 288.2 K)	surface tension liquid-gas ([2]; 298.15 K)	mass density ([2]; 298.15 K)	viscosity ([2]; 298.2 K)	surface tension liquid-gas ([2]; 308.15 K)	mass density ([2]; 308.15 K)	viscosity ([2]; 308.2 K)	surface tension liquid-gas ([2]; 318.15 K)	mass density ([2]; 318.15 K)	viscosity ([2]; 318.2 K)	surface tension liquid-gas ([2]; 328.15 K)	mass density ([2]; 328.15 K)	viscosity ([2]; 328.2 K)	other results
CCCCCC[n+]1ccn(C)c1.O=S(=O)([N-]S(=O)(=O)C(F)(F)F)C(F)(F)F	1.42958 ± 0.0013	1.42844 ± 0.0013	1.42737 ± 0.0013	1.42649 ± 0.0013	1.42578 ± 0.0013	1.42484 ± 0.0013	1.42376 ± 0.0013	97 ± 24 mPa·s	32.5 ± 1.4 mN/m	1372.13 ± 2.5 kg/m3	68 ± 24 mPa·s	31.6 ± 1.4 mN/m	1363.17 ± 2.5 kg/m3	46 mPa·s	30.5 ± 1.4 mN/m	1354.23 ± 2.4 kg/m3	32 mPa·s	29.7 ± 1.4 mN/m	1344.94 ± 2.4 kg/m3	24 mPa·s	surface tension liquid-gas ([2]; 338.15 K): 28.6 ± 1.3 mN/m; mass density ([2]; 338.15 K): 1335.86 ± 2.3 kg/m3; mass density ([2]; 348.15 K): 1326.91 ± 2.3 kg/m3; mass density ([2]; 358.15 K): 1318.16 ± 2.2 kg/m3
CCCCCCn1cc[n+](C)c1.F[P-](F)(F)(F)(F)F [1-hexyl-3-methylimidazolium hexafluorophosphate]	1.41694 ± 0.0013	1.41631 ± 0.0013	1.41531 ± 0.0013	1.41479 ± 0.0013	1.41362 ± 0.0013	1.41307 ± 0.0013	1.41231 ± 0.0013	1018 ± 210 mPa·s	42.1 ± 2 mN/m	1293.41 ± 2.1 kg/m3	607 ± 100 mPa·s	40.7 ± 2 mN/m	1285.78 ± 2.1 kg/m3	345 ± 48 mPa·s	39.4 ± 1.9 mN/m	1277.92 ± 2 kg/m3	215 ± 31 mPa·s	38 ± 1.9 mN/m	1269.88 ± 2 kg/m3	152 ± 26 mPa·s	surface tension liquid-gas ([2]; 338.15 K): 36.6 ± 1.8 mN/m; mass density ([2]; 338.15 K): 1262.13 ± 1.9 kg/m3; viscosity ([2]; 338.2 K): 113 ± 24 mPa·s; mass density ([2]; 348.15 K): 1254.36 ± 1.9 kg/m3; viscosity ([2]; 348.2 K): 87 ± 24 mPa·s; mass density ([2]; 358.15 K): 1246.81 ± 1.9 kg/m3
CCCCCCn1cc[n+](C)c1.F[B-](F)(F)F [1-hexyl-3-methylimidazolium tetrafluoroborate]	1.42672 ± 0.0013	1.42613 ± 0.0013	1.42539 ± 0.0013	1.42443 ± 0.0013	1.42346 ± 0.0013	1.42232 ± 0.0013	1.42146 ± 0.0013	141 ± 25 mPa·s	36.8 ± 1.5 mN/m	1145.32 ± 1.3 kg/m3	102 ± 24 mPa·s	35.6 ± 1.5 mN/m	1138.51 ± 1.3 kg/m3	69 ± 24 mPa·s	34.2 ± 1.5 mN/m	1131.67 ± 1.3 kg/m3	43 mPa·s	33 ± 1.4 mN/m	1124.89 ± 1.2 kg/m3	30 mPa·s	surface tension liquid-gas ([2]; 338.15 K): 32.7 ± 1.4 mN/m; mass density ([2]; 338.15 K): 1118.16 ± 1.2 kg/m3; viscosity ([2]; 338.2 K): 21 mPa·s; mass density ([2]; 348.15 K): 1111.47 ± 1.1 kg/m3; mass density ([2]; 358.15 K): 1104.84 ± 1.1 kg/m3
